Target: KRas (Homo sapiens, UniProt P01116, G12C)
Experiment: KRas degradation in NCI-H2030 cells by Western blot, normalized to GAPDH (data of Table 14)
Format: cell-based
Set-up: host or cells: NCI-H2030
Settings: for Dmax: NCI-H2030; for Percent Degradation at Indicated Concentration (μM): H2030
Method in brief: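 Cells plated overnight, switched to FBS-free medium for 24 h, then treated (0.3, 1, 3 μM final; 0.1% DMSO) for 24 h if VHL-based, otherwise 72 h. RIPA lysates (10 μg protein) blotted for KRas, signal normalized to GAPDH and compared with DMSO.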

SMILES	Percent Degradation at Indicated Concentration (μM): 0.3 (H2030 cells, 0.3 μM)	Percent Degradation at Indicated Concentration (μM): 1 (H2030 cells, 1 μM)	Percent Degradation at Indicated Concentration (μM): 3 (H2030 cells, 3 μM)	Dmax (H2030 cells) [%]	Percent Degradation at Indicated Concentration (μM) (0.3 μM)	Percent Degradation at Indicated Concentration (μM) (1 μM)	Percent Degradation at Indicated Concentration (μM) (3 μM)	Dmax [%]
CN(CCOCCNc1cccc2c1C(=O)N(C1CCC(=O)NC1=O)C2=O)C(=O)CCNc1nc(N2CCN(C(N)=O)CC2)c2cc(Cl)c(-c3cc(O)cc4ccccc34)c(F)c2n1 (centres unmarked) [compound 32, 4-(6-chloro-2-((3-((2-(2-((2-(2,6-dioxopiperidin-3-yl)-1,3-dioxoisoindolin-4-yl)amino)ethoxy)ethyl)(methyl)amino)-3-oxopropyl)amino)-8-fluoro-7-(3-hydroxynaphthalen-1-yl)quinazolin-4-yl)piperazine-1-carboxamide]					C (Percent Degradation: C ≤ 35)	C (Percent Degradation: C ≤ 35)	C (Percent Degradation: C ≤ 35)	≤ 35
CN(CCOCCOCCOCCNc1cccc2c1C(=O)N(C1CCC(=O)NC1=O)C2=O)C(=O)CCNc1nc(N2CCN(C(N)=O)CC2)c2cc(Cl)c(-c3cc(O)cc4ccccc34)c(F)c2n1 (centres unmarked) [compound 34, 4-(6-chloro-2-((1-((2-(2,6-dioxopiperidin-3-yl)-1,3-dioxoisoindolin-4-yl)amino)-12-methyl-13-oxo-3,6,9-trioxa-12-azapentadecan-15-yl)amino)-8-fluoro-7-(3-hydroxynaphthalen-1-yl)quinazolin-4-yl)piperazine-1-carboxamide]					C (Percent Degradation: C ≤ 35)	C (Percent Degradation: C ≤ 35)	C (Percent Degradation: C ≤ 35)	≤ 35

The remaining lines, values ahead:

Percent Degradation at Indicated Concentration (μM): 0.3 (H2030 cells, 0.3 μM)	Percent Degradation at Indicated Concentration (μM): 1 (H2030 cells, 1 μM)	Percent Degradation at Indicated Concentration (μM): 3 (H2030 cells, 3 μM)	Dmax (H2030 cells) [%]	Percent Degradation at Indicated Concentration (μM) (0.3 μM)	Percent Degradation at Indicated Concentration (μM) (1 μM)	Percent Degradation at Indicated Concentration (μM) (3 μM)	Dmax [%]	SMILES
C (C ≤ 35)	C (C ≤ 35)	C (C ≤ 35)	≤ 35					CCC(=O)N1CCN(c2nc(NCCC(=O)N(C)CCOCCOc3ccc4c(c3)C(=O)N(C3CCC(=O)NC3=O)C4=O)nc3c(F)c(-c4cc(O)cc5ccccc45)c(Cl)cc23)CC1 (centres unmarked) [compound 47, 3-((6-chloro-8-fluoro-7-(3-hydroxynaphthalen-1-yl)-4-(4-propionylpiperazin-1-yl)quinazolin-2-yl)amino)-N-(2-(2-((2-(2,6-dioxopiperidin-3-yl)-1,3-dioxoisoindolin-5-yl)oxy)ethoxy)ethyl)-N-methylpropanamide]
				C (Percent Degradation: C ≤ 35)	C (Percent Degradation: C ≤ 35)	C (Percent Degradation: C ≤ 35)	≤ 35	C=CC(=O)N1CCN(c2nc(NCCC(=O)N(C)CCOCCOCCOCCOCCOCCOCCOCCOCCOCCOCC(=O)N[C@H](C(=O)N3C[C@H](O)C[C@H]3C(=O)N[C@@H](C)c3ccc(-c4scnc4C)cc3)C(C)(C)C)nc3c(F)c(-c4cc(O)cc5ccccc45)c(Cl)cc23)CC1 [compound 198, (2S,4R)-1-((2S)-39-((4-(4-acryloylpiperazin-1-yl)-6-chloro-8-fluoro-7-(3-hydroxynaphthalen-1-yl)quinazolin-2-yl)amino)-2-(tert-butyl)-36-methyl-4,37-dioxo-6,9,12,15,18,21,24,27,30,33-decaoxa-3,36-diazanonatriacontanoyl)-4-hydroxy-N-((S)-1-(4-(4-methylthiazol-5-yl)phenyl)ethyl)pyrrolidine-2-carboxamide]
				C (Percent Degradation: C ≤ 35)	C (Percent Degradation: C ≤ 35)	C (Percent Degradation: C ≤ 35)	≤ 35	C=CC(=O)N1CCN(c2nc(NCCC(=O)N(C)CCOCCOCC(=O)N[C@H](C(=O)N3C[C@H](O)C[C@H]3C(=O)N[C@@H](C)c3ccc(-c4scnc4C)cc3)C(C)(C)C)nc3c(F)c(-c4c(O)cccc4F)c(Cl)cc23)CC1 (atropisomer, axis not shown) [compound 208, (2S,4R)-1-((S)-15-(((R)-4-(4-acryloylpiperazin-1-yl)-6-chloro-8-fluoro-7-(2-fluoro-6-hydroxyphenyl)quinazolin-2-yl)amino)-2-(tert-butyl)-12-methyl-4,13-dioxo-6,9-dioxa-3,12-diazapentadecanoyl)-4-hydroxy-N-((S)-1-(4-(4-methylthiazol-5-yl)phenyl)ethyl)pyrrolidine-2-carboxamide]

— patent US12552783B2, “Modulators of proteolysis and associated methods of use” (Arvinas Operations, Inc., priority 2018, dated 2026)
